In US8173595B2, “Methods and compositions for the inhibition of thrombus formation” (The Board of Trustees of the University of Illinois, priority 2004, dated 2012):
Where no end group is shown, it is not given here. [ ]: non-standard residue; d: D form. The star is where a group is joined. Myristoyl = CCCCCCCCCCCCCC(=O)*; pS = N[C@@H](COP(=O)(O)O)C(=O)O

Legend:
[1] = tested on: platelets (platelet-rich plasma from healthy donors); assay: Ristocetin-induced (vWF-dependent) platelet aggregation in platelet-rich plasma; type: cell-based, human
Method: (§1) Platelet preparation and aggregation. Blood was drawn from healthy donors, and was anti-coagulated with 1/10 volume of 3.8% trisodium citrate. Platelet-rich plasma (PRP) was obtained by centrifugation at 300×g for 20 min at 22° C. Platelet aggregation was measured using a turbidometric platelet aggregometer at 37° C. with a stirring speed at 1000 rpm. To examine the effects of peptides, various concentrations of each peptide was preincubated with platelets at 22° C. for 5 min. In some experiments, intergrin inhibitor RGDS (1 mM) was also added to exclude the roles of β3 integrins.

[2] = target: T1, 14-3-3 binding to GPIb-IX (Homo sapiens, UniProt P63104); assay: Binding of GPIb-IX from platelet lysates to 14-3-3-conjugated beads (Western blot); conditions: recombinant 14-3-3-MBP beads, FIG. 1B
T1 construct: GPIb-IX: platelet lysate
T1 sequence (P63104 1-245): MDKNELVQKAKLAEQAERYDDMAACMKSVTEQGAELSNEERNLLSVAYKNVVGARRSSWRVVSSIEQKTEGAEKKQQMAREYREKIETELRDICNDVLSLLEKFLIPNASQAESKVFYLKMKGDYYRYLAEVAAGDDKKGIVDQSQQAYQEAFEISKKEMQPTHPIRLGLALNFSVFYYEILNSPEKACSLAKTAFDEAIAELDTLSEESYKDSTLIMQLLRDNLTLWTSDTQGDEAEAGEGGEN
Method: 14-3-3 binding to GPIb-IX. Binding of GPIb-IX to 14-3-3-conjugated beads were performed as previously described (Du et al., J. Biol. Chem., 271:7362-7367 (1996)). Briefly, 14-3-3-conjugated Sepharose 4B beads and maltose-binding protein (MBP)-conjugated control beads were preincubated with various concentrations of synthetic peptides at 4° C. for 1 h, and then with platelet lysates for an additional 1 h. The beads were washed three times. Bound GPIb-IX was detected by Western blot with a monoclonal antibody against GPIbα, WM23.

[3] = Tail-bleeding time; type: in vivo, C57 black mice; conditions: infused into jugular vein, 5 min circulation, compared with MαC or MαCsc, p<0.0001, FIG. 4B
Method: Tail-bleeding time. Bleeding times were performed with 6-8-wk-old adult C57 black mice anesthetized with an intraperitoneal injection of avertin. The internal jugular vein was surgically exposed, and a total volume of 50 μl of a peptide (5 mM) was infused using a 27 G needle. Experiments were performed in a double-blinded fashion. After 5 min, tails were amputated 5 mm from the tail tip, and immersed in a tube containing 0.15M NaCl maintained at 37° C. Bleeding was visually followed and timed. Maximum bleeding time allowed was 10 min after which the tail was cauterized. Statistical differences between the groups were examined using Mann-Whitney test and InStat software.

[4] = tested on: platelet adhesion to vWF; assay: Platelet adhesion under flow in vWF-coated glass capillaries; type: cell-based; conditions: washed platelets, in the presence of RGDS, FIG. 4A
Method: Platelet adhesion under flow. Washed platelets (3×10^8/ml) were preincubated with various concentrations of synthetic peptides at 22° C. for 10 min, the platelets were perfused into the vWF-coated glass capillaries using a PhD syringe pump (Harvard Apparatus Inc.) at various shear rates for 8 min. Transient adhesion of platelets on the vWF-coated surface was recorded on video cassette recorder. Adherent platelets were counted in 10 randomly selected fields of 0.25 mm^2 within a 10 second time period.

[5] = tested on: platelets (platelet-rich plasma); assay: Platelet aggregation induced by ADP, collagen or thromboxane A2 analog U46619; type: cell-based, human; conditions: collagen, thromboxane A2 analog U46619, FIGS. 2C, 2D, 2E
Method: as §1

[6] = tested on: vWF binding to GPIb-IX on washed human platelets; assay: Flow cytometry analysis of ristocetin-induced vWF binding to platelets; type: cell-based; conditions: 10 mM EDTA or RGDS, ristocetin 1 mg/ml, FIG. 3
Method: Flow cytometry analysis of VWF binding to platelets. Flow cytometry analysis of vWF binding to platelets has been described previously 8,9. Washed platelets (1.0×10^7/ml) were prepared as described previously (Englund et al., J. Biol. Chem., 276:16952-16959 (2001); Bodnar et al., J. Biol. Chem. 277:47080-47087 (2002)), and resuspended in phosphate-buffered saline (PBS) solution (0.01 M NaH2PO4, 0.15 M NaCl, pH 7.4) containing 10 mM EDTA and 1% BSA. Platelets were preincubated with various concentrations of synthetic peptides at 22° C. for 10 min before incubating with purified vWF (35 μg/ml) and ristocetin (1.0 mg/ml) at 22° C. for 30 min. Platelets were washed once, further incubated in the same buffer containing 10 μg/ml FITC-labeled SZ-29 in the dark at 22° C. for 30 min and then analyzed by flow cytometry. As negative controls, platelets were incubated in the presence of ristocetin alone then incubated with FITC-labeled SZ29.

[7] = tested on: platelets; assay: Botrocetin-induced platelet agglutination; type: cell-based
[8] = tested on: GPIb-IX-dependent platelet agglutination; assay: Ristocetin-induced GPIb-IX-specific platelet agglutination in the presence of RGDS; type: cell-based, human; conditions: PRP, in the presence of 1 mM RGDS, ristocetin 1.25 mg/ml, FIG. 2A, 2B
Method: as §1

With `CCCCCCCCCCCCCC(=O)OC(=O)CCCCCCCCCCCCC` [myristic anhydride (MA), myristic anhydride] as the compound, how does the ristocetin-induced platelet aggregation ([1]; PRP, 100 μM, FIG. 1D, 1E) read?
Its ristocetin-induced platelet aggregation is “no effect”.

For “C13H27CONH-LSISYGSHR (Myristoyl-LSISYGSHR) [MαCsc, myristoylated scrambled control peptide]”, which “binding of GPIb-IX to 14-3-3 beads” value [2] is on record?
Its value is “not”.

What about the ristocetin-induced platelet aggregation ([1]; PRP, 100 μM, FIG. 1D, 1E) of the same compound?
The ristocetin-induced platelet aggregation was “no significant effect”.

For “C13H27CONH-SIRYSGHDL (Myristoyl-SIRYSGHDL) [MSDαC, myristoylated peptide replacing phosphorylated serine 609 with aspartic acid to simulate phosphoserine]”, which ristocetin-induced platelet aggregation ([1]; PRP preincubated at room temperature for 5 min, FIG. 5) is on record?
Its ristocetin-induced platelet aggregation is “completely inhibited”.

Which “binding of GPIb-IX to 14-3-3 beads” value [2] does the source give for “C13H27CONH-SIRYSGHSL (Myristoyl-SIRYSGHSL) [MαC]” here?
Its value is “not”.

And the ristocetin-induced platelet aggregation ([1]; PRP, 100 μM, FIG. 1D, 1E)?
The ristocetin-induced platelet aggregation was “no significant effect”.

Which results are given for “C13H27CONH-SIRYSGHpSL (Myristoyl-SIRYSGH[pS]L) [MPαC]”?
binding of GPIb-IX to 14-3-3 beads [2]: abolished; median tail bleeding time [3]: significantly prolonged; vWF-dependent platelet aggregation induced by ristocetin ([1]; PRP preincubated with increasing concentrations of peptide, FIG. 1C): dose-dependently inhibited; adhesion of platelets on vWF surface under flow [4]: almost no adhesion; platelet aggregation induced by platelet agonists [5]: no inhibitory effect; ristocetin-induced vWF binding to platelets [6]: inhibited; botrocetin-induced platelet agglutination [7]: inhibited; ristocetin-induced platelet agglutination [8]: completely inhibited

Which ristocetin-induced platelet aggregation ([1]; PRP, 100 μM, FIG. 1D, 1E) does the source give for SIRYSGHpSL [PαC] here?
The ristocetin-induced platelet aggregation was “no effect”.
